Measurements taken from PMC7377239, “Cardiovascular Effects of Polychlorinated Biphenyls and Their Major Metabolites” (Environmental Health Perspectives, 2020).
Like-named read-outs stand apart in the source and are kept apart here.

Assays:
HUVECs = experiment: High-content imaging cytotoxicity in HUVECs, 24 h; format: cell-based, human; settings: Homo sapiens, HUVEC, 24 h; for viability at 0.01 µM / activity at 0.01 µM: concentration 0.01 µM; for viability at 0.01 µM / activity at 0.01 µM / viability at 0.1 µM / activity at 0.1 µM / viability at 1 µM / activity at 1 µM / viability at 10 µM / activity at 10 µM / viability at 100 µM / activity at 100 µM: 0.00 µM = 100.00; for viability at 0.1 µM / activity at 0.1 µM: concentration 0.10 µM; for viability at 1 µM / activity at 1 µM: concentration 1.00 µM; for viability at 10 µM / activity at 10 µM: concentration 10.00 µM; for viability at 100 µM / activity at 100 µM: concentration 100.00 µM
How it was run: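 HUVECs (passages 1–5) grown to monolayer over 3–5 d, then exposed 24 h at 37°C, 5% CO2; stained with Hoechst 33342, MitoTracker Orange and calcein AM and imaged at 10×. Readouts normalized to 0.5% DMSO vehicle, four-parameter logistic fit; POD at one-SD cutoff, 100μM assigned when no response.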

[1] = tested on: iCell endothelial cells (human iPSC-derived ECs); experiment: Tube formation (tubulogenesis) assay in iCell endothelial cells, 18 h; format: cell-based; settings: Homo sapiens, Endothelial cell; for activity at 0.1 µM: 0.10 µM
How it was run: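 iCell ECs (passages 1–5) seeded 7,500 cells/well on reduced-growth-factor Geltrex in starvation medium, exposed overnight at 37°C to compounds in triplicate concentration–response (0.5% DMSO vehicle). Calcein AM staining, 4× imaging, angiogenesis image analysis; readouts normalized to vehicle, four-parameter logistic fit, POD at 1 SD of vehicle; 100 μM assigned NOAEL if no response.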

[2] = HUVECs, 24 hr, read-out: huvec.cyto.24hr
[3] = HUVECs, 24 hr, read-out: huvec.mito.24hr
[4] = HUVECs, 24 hr, read-out: huvec.mitoint.24hr
[5] = HUVECs, 24 hr, read-out: huvec.nma.24hr
[6] = HUVECs, 24 hrs, read-out: huvec.tc.24hrs
[7] = iPSC-EC, 0.00 µM = 100.00, read-out: endo.mtl.18hr
[8] = iPSC-EC, 0.00 µM = 100.00, read-out: endo.tlps.18hr
[9] = iPSC-EC, 0.00 µM = 100.00, read-out: endo.tta.18hr
[10] = iPSC-EC, 0.00 µM = 100.00, read-out: endo.ttl.18hr

COc1cc(Cl)c(-c2cc(Cl)ccc2Cl)cc1Cl [4-OMe PCB52]
viability at 0.01 µM (HUVECs; [2]): 105%
activity at 0.01 µM (HUVECs; [3]): 105%
activity at 0.01 µM (HUVECs; [4]): 107%
activity at 0.01 µM (HUVECs; [5]): 98.6%
viability at 0.1 µM (HUVECs; [2]): 102%
activity at 0.1 µM (HUVECs; [3]): 102%
activity at 0.1 µM (HUVECs; [4]): 114%
activity at 0.1 µM (HUVECs; [5]): 99.1%
viability at 1 µM (HUVECs; [2]): 85.9%
activity at 1 µM (HUVECs; [3]): 85.8%
activity at 1 µM (HUVECs; [4]): 113%
activity at 1 µM (HUVECs; [5]): 104%
viability at 10 µM (HUVECs; [2]): 57.8%
activity at 10 µM (HUVECs; [3]): 31.1%
activity at 10 µM (HUVECs; [4]): 11.1%
activity at 10 µM (HUVECs; [5]): 54.2%
viability at 100 µM (HUVECs; [2]): 60%
activity at 100 µM (HUVECs; [3]): 23%
activity at 100 µM (HUVECs; [4]): 13.4%
activity at 100 µM (HUVECs; [5]): 63.6%
minimal effective concentration (HUVECs; HUVECs, 24 hr, MAX 100.00, read-out: huvec.cyto.24hr POD): 0.78 µM
minimal effective concentration (HUVECs; HUVECs, 24 hr, MAX 100.00, read-out: huvec.mito.24hr POD): 0.55 µM
minimal effective concentration (HUVECs; HUVECs, 24 hr, MAX 100.00, read-out: huvec.mitoint.24hr POD): 2.69 µM
minimal effective concentration (HUVECs; HUVECs, 24 hr, MAX 100.00, read-out: huvec.nma.24hr POD): 2.36 µM
viability at 0.01 µM (HUVECs; [6]): 105%
viability at 0.1 µM (HUVECs; [6]): 102%
viability at 1 µM (HUVECs; [6]): 85.9%
viability at 10 µM (HUVECs; [6]): 57.9%
viability at 100 µM (HUVECs; [6]): 60%
minimal effective concentration (HUVECs; HUVECs, 24 hrs, MAX 100.00, read-out: huvec.tc.24hrs POD): 0.78 µM
activity at 0.01 µM [1, 7]: 120%
activity at 0.01 µM [1, 8]: 104%
activity at 0.01 µM [1, 9]: 141%
activity at 0.01 µM [1, 10]: 150%
activity at 0.1 µM [1, 7]: 112%
activity at 0.1 µM [1, 8]: 113%
activity at 0.1 µM [1, 9]: 116%
activity at 0.1 µM [1, 10]: 123%
activity at 1 µM [1, 7]: 119%
activity at 1 µM [1, 8]: 114%
activity at 1 µM [1, 9]: 121%
activity at 1 µM [1, 10]: 132%
activity at 10 µM [1, 7]: 114%
activity at 10 µM [1, 8]: 131%
activity at 10 µM [1, 9]: 136%
activity at 10 µM [1, 10]: 142%
activity at 100 µM [1, 7]: 49.4%
activity at 100 µM [1, 8]: 15.9%
activity at 100 µM [1, 9]: 6.4%
activity at 100 µM [1, 10]: 8.34%
minimal effective concentration ([1]; iPSC-EC, 100.00 = highest concentration tested, read-out: endo.mtl.18hr POD): 52 µM
minimal effective concentration ([1]; iPSC-EC, 100.00 = highest concentration tested, read-out: endo.tlps.18hr POD): 56 µM
minimal effective concentration ([1]; iPSC-EC, 100.00 = highest concentration tested, read-out: endo.tta.18hr POD): 51.6 µM
minimal effective concentration ([1]; iPSC-EC, 100.00 = highest concentration tested, read-out: endo.ttl.18hr POD): 54.7 µM

Oc1cccc(-c2ccc(Cl)cc2)c1 [3'-OH-PCB 3]
minimal effective concentration (HUVECs; cyto, 24 hr, read-out: POD huvec.cyto.24hr): 1.1 µM
minimal effective concentration (HUVECs; mito, 24 hr, read-out: POD huvec.mito.24hr): 0.97 µM
minimal effective concentration (HUVECs; mitoint, 24 hr, read-out: POD huvec.mitoint.24hr): 41.4 µM
minimal effective concentration (HUVECs; nma, 24 hr, read-out: POD huvec.nma.24hr): 0.04 µM
minimal effective concentration (HUVECs; tc, 24 hr, read-out: POD huvec.tc.24hr): 1.1 µM
minimal effective concentration ([1]; endothelial cells (endo), tube formation mtl, 18 hr, read-out: POD endo.mtl.18hr): 0.36 µM
minimal effective concentration ([1]; endothelial cells (endo), tube formation tlps, 18 hr, read-out: POD endo.tlps.18hr): 1.03 µM
minimal effective concentration ([1]; endothelial cells (endo), tube formation tta, 18 hr, read-out: POD endo.tta.18hr): 0.49 µM
minimal effective concentration ([1]; endothelial cells (endo), tube formation ttl, 18 hr, read-out: POD endo.ttl.18hr): 0.51 µM
